Consider 15 molecules from patent US20250177408A1, “INHIBITOR OF INTERACTION BETWEEN YAP/TAZ AND TEAD, PREPARATION THEREOF, PHARMACEUTICAL COMPOSITION THEREOF AND USE THEREOF” (ETERN BIOPHARMA (SHANGHAI) CO., LTD., priority 2022, published 2025).

Structures can show the parent of a compound that is named as a salt.

For assay [1], the target named is YAP-TEAD protein interaction (His-TEAD1 (209-426) protein, Bio-YAP peptide (60-100)) (Homo sapiens, UniProt P28347). As to the kind of experiment: YAP-TEAD protein interaction HTRF experiment. The assay is classed as binding. Particulars: His-TEAD1 (209-426) 10 nM, Bio-YAP peptide 50 nM, read-out: Activity of each compound in blocking YAP-TEAD protein interaction (grades of IC50 values). Here is the method: In this example, the YAP-TEAD protein interaction HTRF experiment was used to detect the activity of each compound in blocking the YAP-TEAD protein interaction.
Chain of YAP-TEAD protein interaction (His-TEAD1 (209-426) protein, Bio-YAP peptide (60-100)) (P28347 209-426): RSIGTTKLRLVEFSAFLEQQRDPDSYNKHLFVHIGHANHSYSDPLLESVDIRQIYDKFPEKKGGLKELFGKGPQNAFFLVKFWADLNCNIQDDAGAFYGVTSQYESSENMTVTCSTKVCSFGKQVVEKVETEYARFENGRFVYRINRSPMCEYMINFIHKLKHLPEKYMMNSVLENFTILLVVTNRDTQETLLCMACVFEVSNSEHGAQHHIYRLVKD
The experiment was carried out according to the following operation steps:
Step 1: His-TEAD1 (209-426) protein was added to a 384-well detection white plate to a final concentration of 10 nM, and buffer was used as the background signal well. The compounds to be tested were subjected to 3-fold dilution and a total of 10 concentration gradients were set up, and each diluted solution was mixed well. A certain volume of the compound to be tested was added to each well separately, 2 replicates were set for each concentration, and the final concentration of DMSO was controlled at 1%. Incubation was carried out at room temperature for 20 minutes. The amino acid sequence of TAED1 (209-426) used in this step is shown in SEQ ID NO: 1:
After mixing evenly, the mixture was incubated at room temperature for 10 minutes.
Step 3: Anti-His-Eu cryptate gold and streptavidin-XL665 were diluted according to the instructions and mixed in equal proportions. A certain volume of the detection reagent was added to the well, and the mixture was incubated at room temperature for 1 hour.
Step 4: The signal was detected using an Envision (Perkin Elmer) microplate reader at an excitation wavelength of 320 nm and emission wavelengths of 665 nm and 620 nm.
Step 5: The signal was calculated based on the ratio of Em665/Em620*10000.
(§1) The inhibition percentage (%) was calculated using the following formula: […]
The half-maximal inhibitory concentration (IC50) values were calculated using GraphPad Prism software.
(In general: In TR-FRET formats the signal depends on donor and acceptor labels being close together.)

Assay [2] deals with MSTO-211H cells. Nature of the assay: Cell proliferation inhibition experiment (CellTiter-Glo). The assay is classed as cell-based. Particulars: Homo sapiens, 96 hours, read-out: Inhibitory activity of each compound on the proliferation of MSTO-211H cells (grades of IC50 values). Here is the method: In this example, the intracellular ATP was quantitatively determined by the CellTiter-Glo luminescence cell viability detection kit to detect the number of living cells in the culture.
Step 1: MSTO-211H (ATCC, CRL-2081TM) or NCI-H2052 (ATCC, CRL-5915TM) cells were inoculated in a 96-well plate at a density of 1500 cells per well with a volume of 100 μL per well, and the cells were incubated overnight in a 37° C., 5% carbon dioxide incubator. The culture medium used was RPMI1640 medium (GIBCO-A10491-01)+10% FBS (GIBCO-10099141C)+1% penicillin/streptomycin (Pen/Strep) (GIBCO-15070-063).
Step 2: The cells were treated with the compounds to be tested. The compounds to be tested were 3-fold diluted, and a total of 9 concentration gradients were set up; a certain volume of DMSO or the compounds to be tested was added to each well, respectively, and 2 replicates were set up for each concentration, and the final concentration of DMSO was controlled to be no higher than 0.5%. The cells were incubated for 96 hours in a 37° C., 5% carbon dioxide incubator.
Step 3: Cell viability was detected in the control group and treatment group using CellTiter-Glo Luminescent Cell Viability Assay kit (Promega, G7570). 50 μL of CellTiter-Glo was added to each well, mixed well, and incubated at room temperature for 10 minutes. The signal was read using En Vision® Multilabel Plate Reader (Perkin Elmer).
as §1
Using Graphpad Prism software, the IC50 values of the compounds inhibiting the CTG signal of cell proliferation activity was calculated.

Consider `Cn1cc2c(n1)COc1c-2cc(C#N)c(-c2c(Cl)c(F)cc3c2C[C@](c2ccccc2)([C@@H]2CCCN2)O3)c1F` (atropisomer, axis not shown) [Compound 2, (S)-7-((S)-5-Chloro-6-fluoro-2-phenyl-2-((S)-pyrrolidin-2-yl)-2,3-dihydrobenzofuran-4-yl)-6-fluoro-2-methyl-2,4-dihydrochromeno[3,4-c]pyrazole-8-carbonitrile], for which the IC50 was < 50 nM in assay [1] and 200 to 500 nM in assay [2].
Consider `NC(=O)c1cc2cccnc2c(F)c1-c1c(Cl)c(F)cc2c1C[C@](c1ccccc1)([C@@H]1CCCN1)O2` (atropisomer, axis not shown) [Compound 4, (S)-7-((S)-5-Chloro-6-fluoro-2-phenyl-2-((S)-pyrrolidin-2-yl)-2,3-dihydrobenzofuran-4-yl)-8-fluoroquinoline-6-carboxamide], for which the IC50 is < 50 nM in assay [1] and < 200 nM in assay [2].
In the same order, the values of `NC(=O)c1cc2c(c(F)c1-c1c(Cl)c(F)cc3c1C[C@](c1ccccc1)([C@@H]1CCCN1)O3)OCC1(CC1)O2` (atropisomer, axis not shown) [Compound 5, (S)-6-((S)-5-Chloro-6-fluoro-2-phenyl-2-((S)-pyrrolidin-2-yl)-2,3-dihydrobenzofuran-4-yl)-5-fluoro-3H-spiro[benzo[b][1,4]dioxoine-2, l'-cyclopropane]-7-carboxamide] are < 50 nM and < 200 nM.
On the same counts, the results for `NC(=O)c1cc2c(c(F)c1-c1c(Cl)c(F)cc3c1C[C@](c1ccccc1)([C@@H]1CCCN1)O3)OCc1nccnc1-2` (atropisomer, axis not shown) [Compound 6, (S)-8-((S)-5-Chloro-6-fluoro-2-phenyl-2-((S)-pyrrolidin-2-yl)-2,3-dihydrobenzofuran-4-yl)-7-fluoro-5H-chromeno[3,4-b]pyrazine-9-carboxamide] are < 50 nM and < 200 nM.
On the same counts, the results for `NC(=O)c1cc2c(c(F)c1-c1c(Cl)c(F)cc3c1C[C@](c1ccccc1)([C@@H]1CCCN1)O3)OCc1n[nH]nc1-2` (atropisomer, axis not shown) [Compound 7, (S)-7-((S)-5-Chloro-6-fluoro-2-phenyl-2-((S)-pyrrolidin-2-yl)-2,3-dihydrobenzofuran-4-yl)-6-fluoro-2,4-dihydrochromeno[3,4-d][1,2,3]triazole-8-carboxamide] are < 50 nM and 200 to 500 nM.
Regarding `Cn1cc2c(n1)COc1c-2cc(C(N)=O)c(-c2c(Cl)c(F)cc3c2C[C@](c2ccccc2)([C@@H]2CC4(CC4)CN2)O3)c1F` (atropisomer, axis not shown) [Compound 9, (S)-7-((S)-5-Chloro-6-fluoro-2-phenyl-2-((S)-5-azaspiro[2.4]heptan-6-yl)-2,3-dihydrobenzofuran-4-yl)-6-fluoro-2-methyl-2,4-dihydrochromeno[3,4-c]pyrazole-8-carboxamide hydrochloride], the IC50 in assay [1] is < 50 nM; in assay [2], < 200 nM.
On the same counts, the results for `NC(=O)c1cc2c(c(F)c1-c1c(Cl)c(F)cc3c1C[C@](c1ccccc1)([C@@H]1CCCN1)O3)Oc1nccnc1O2` (atropisomer, axis not shown) [Compound 10, (S)-8-((S)-5-Chloro-6-fluoro-2-phenyl-2-((S)-pyrrolidin-2-yl)-2,3-dihydrobenzofuran-4-yl)-9-fluorobenzo[5,6][1,4]dioxino[2,3-b]pyrazine-7-carboxamide] are < 50 nM and < 200 nM.
On the same counts, the results for `CNC(=O)c1cc2c(c(F)c1-c1c(Cl)c(F)cc3c1C[C@](c1ccccc1)([C@@H]1CCCN1)O3)OCc1nn(C)cc1-2` (atropisomer, axis not shown) [Compound 39, (S)-7-((S)-5-Chloro-6-fluoro-2-phenyl-2-((S)-pyrrolidin-2-yl)-2,3-dihydrobenzofuran-4-yl)-6-fluoro-N,2-dimethyl-2,4-dihydrochromeno[3,4-c]pyrazole-8-carboxamide] are < 50 nM and < 200 nM.
For `CNC[C@@]1(c2ccccc2)Cc2c(cc(F)c(Cl)c2-c2c(C(N)=O)cc3c(c2F)OCc2nn(C)cc2-3)O1` (atropisomer, axis not shown) [Compound 41, (S)-7-((S)-5-Chloro-6-fluoro-2-((methylamino)methyl)-2-phenyl-2,3-dihydrobenzofuran-4-yl)-6-fluoro-2-methyl-2,4-dihydrochromeno[3,4-c]pyrazole-8-carboxamide], the values for the IC50 in assay [1] and in assay [2] were < 50 nM and < 200 nM, respectively.
As for `NC(=O)c1cc2c(c(F)c1-c1c(Cl)c(F)cc3c1C[C@](c1ccccc1)([C@@H]1CCCN1)O3)OCc1nncn1-2` (atropisomer, axis not shown) [Compound 42, (S)-7-((S)-5-Chloro-6-fluoro-2-phenyl-2-((S)-pyrrolidin-2-yl)-2,3-dihydrobenzofuran-4-yl)-6-fluoro-4H-benzo[b][1,2,4]triazolo[4,3-d][1,4]oxazine-8-carboxamide], the IC50 was < 50 nM in assay [1] and 500 to 5000 nM in assay [2].
For the molecule `NC(=O)c1cc2c(c(F)c1-c1c(Cl)c(F)cc3c1C[C@](c1ccccc1)([C@@H]1CCCN1)O3)OCC21CCNCC1` (atropisomer, axis not shown) [Compound 44, (S)-6-((S)-5-Chloro-6-fluoro-2-phenyl-2-((S)-pyrrolidin-2-yl)-2,3-dihydrobenzofuran-4-yl)-7-fluoro-2H-spiro [benzofuran-3,4′-piperidine]-5-carboxamide], the IC50 was 50 to 500 nM in assay [1] and > 5000 nM in assay [2].
In the same order, the values of `NC(=O)c1cc2c(c(F)c1-c1c(Cl)c(F)cc3c1C[C@](c1ccccc1)([C@@H]1CCCN1)O3)OCc1n[nH]cc1-2` (atropisomer, axis not shown) [Compound 46, (S)-7-((S)-5-Chloro-6-fluoro-2-phenyl-2-((S)-pyrrolidin-2-yl)-2,3-dihydrobenzofuran-4-yl)-6-fluoro-2,4-dihydrochromeno[3,4-c]pyrazole-8-carboxamide] are < 50 nM and < 200 nM.
On the same counts, the results for `CCn1cc2c(n1)COc1c-2cc(C(N)=O)c(-c2c(Cl)c(F)cc3c2C[C@](c2ccccc2)([C@@H]2CCCN2)O3)c1F` (atropisomer, axis not shown) [Compound 62, (S)-7-((S)-5-Chloro-6-fluoro-2-phenyl-2-((S)-pyrrolidin-2-yl)-2,3-dihydrobenzofuran-4-yl)-2-ethyl-6-fluoro-2,4-dihydrochromeno[3,4-c]pyrazole-8-carboxamide] are < 50 nM and < 200 nM.
For `NC(=O)c1cc2c(c(F)c1-c1c(Cl)c(F)cc3c1C[C@](c1ccccc1)([C@@H]1CCCN1)O3)Oc1cnncc1O2` (atropisomer, axis not shown) [Compound 67, (S)-8-((S)-5-Chloro-6-fluoro-2-phenyl-2-((S)-pyrrolidin-2-yl)-2,3-dihydrobenzofuran-4-yl)-9-fluorobenzo[5,6][1,4]dioxo[2,3-d]pyridazine-7-carboxamide], the IC50 in assay [1] is < 50 nM; in assay [2], 200 to 500 nM.
Consider `COCCCNC[C@@]1(c2ccccc2)Cc2c(cc(F)c(Cl)c2-c2c(C(N)=O)cc3c(c2F)OCc2nn(C)cc2-3)O1` (atropisomer, axis not shown) [Compound 83, (S)-7-((S)-5-Chloro-6-fluoro-2-(((3-methoxypropyl)amino)methyl)-2-phenyl-2,3-dihydrobenzofuran-4-yl)-6-fluoro-2-methyl-2,4-dihydrochromeno[3,4-c]pyrazole-8-carboxamide formate], for which the IC50 in assay [2] is < 200 nM.
